One may read the GI50 as the concentration that inhibits growth by half.

Structures are written as SMILES. Counter-ions that a name gives are not always drawn. Like-named read-outs stand apart in the source and are kept apart here.

Our source for the GI50 values is patent publication US8481525B2, “Kinase inhibitors and method of treating cancer with same” (University of Health Network, priority 2009, dated 2013).

Common to all, as to assay: Cell growth inhibition, Sulforhodamine B assay (SRB)
Common to all, as to assay type: cell-based
(In general: In SRB staining, fixed cells bind dye roughly in proportion to their protein.)

Assay [1] relates to HCC1954 basal breast cancer cell line. Conditions: Homo sapiens. As for the experimental part: (§1) The cells were cultured for 5 days before the Sulforhodamine B assay (SRB) was performed to determine the compound's cell growth inhibition activity.
(§2) Sulforhodamine B (purchased from Sigma, Oakville, ON, Canada) is a water-soluble dye that binds to the basic amino acids of the cellular proteins. Thus, colorimetric measurement of the bound dye provides an estimate of the total protein mass that is related to the cell number. the cells are fixed in situ by gently aspirating off the culture media and adding 50 μl ice cold 10% Trichloroacetic Acid (TCA) per well and incubate at 4° C. for 30-60 min, The plates are washed with water five times and allowed to air dry for 5 min. […] Following staining, plates are washed four times with 1% acetic acid to remove unbound dye and then allowed to air dry for 5 min. […] Absorbance is read at 570 nm.
(§3) The percentage (%) of relative growth inhibition was calculated by comparing to DMSO treated only cells (100%). GI50's were determined for compounds with cytotoxic activity. The GI50 was calculated using GraphPad PRISM software (GraphPad Software, Inc., San Diego, Calif., USA).

Assay [2] relates to MCF-7 luminal breast cancer cell line. As to conditions: Homo sapiens, MCF7, 120 h. As for the experimental part:
as §1, §2, §3

For assay [3], the system named is A549 lung cancer cell line. As to conditions: Homo sapiens, read-out: Cell Line GI50 Range A-549. As for the experimental part:
as §1, §2, §3

In assay [4] the test system is MDA-MB-468 basal breast cancer cell line. Conditions: Homo sapiens, 5 days culture, SRB. As for the experimental part:
as §1, §2, §3

The test system of assay [5] is SW620 colon cancer cell line. As to conditions: Homo sapiens, SW-620, 120 h. As for the experimental part: as §1, §2, §3
The mark [6] stands for this setting: HCC1954, 120 h, HCC1954 basal breast cancer cell line, 5 days culture, SRB, read-out: Cell Line GI50 Range HCC-1954.
Setting [7] is: MCF-7 luminal breast cancer cell line, 5 days culture, SRB, read-out: Cell Line GI50 Range MCF-7.
Setting [8] is: 120 h, A549 lung cancer cell line, 5 days culture, SRB.
Setting [9] is: 120 h, MDA-MB-468 basal breast cancer cell line, read-out: Cell Line GI50 Range MDA-MB-468.
Where [10] appears, read: SW620 colon cancer cell line, 5 days culture, SRB, read-out: Cell Line GI50 Range SW-620.
[11] abbreviates: 120 h, HCC1954 basal breast cancer cell line, 5 days culture, SRB, read-out: Cell Line GI50 Range HCC-1954.
[12] abbreviates: HCC1954, 120 h, read-out: Cell Line GI50 Range HCC-1954.
The mark [13] stands for this setting: read-out: Cell Line GI50 Range MCF-7, MCF-7 luminal breast cancer cell line, 5 days culture, SRB.
Setting [14] is: read-out: Cell Line GI50 Range SW-620, SW620 colon cancer cell line, 5 days culture, SRB.

Take `O=C1Nc2ncc(Br)cc2[C@@]12C[C@@H]2c1ccc2c(/C=C/c3cccnc3)n[nH]c2c1` (racemic) [Example A27, (1R*,2S*)-5′-bromo-2-(3-((E)-2-(pyridin-3-yl)vinyl)-1H-indazol-6-yl)spiro[cyclopropane-1,3′-pyrrolo[2,3-b]pyridin]-2′(1′H)-one]: the GI50 was in the range of 1000 to 10000 nM in assay [1] (setting [6]); 1000 to 10000 nM in assay [2] (setting [7]); 1000 to 10000 nM in assay [3] (setting [8]); 100 to 1000 nM in assay [4] (setting [9]); 1000 to 10000 nM in assay [5] (setting [10]).

For the compound `O=C1Nc2ccccc2[C@@]12C[C@@H]2c1ccc2c(/C=C/c3cccnc3)n[nH]c2c1` (racemic) [Example A28, (1R*,2S*)-2-(3-((E)-2-(pyridin-3-yl)vinyl)-1H-indazol-6-yl)spiro-[cyclopropane-1,3′-indolin]-2′-one], the GI50 in assay [1] (setting [6]), in assay [2] (setting [7]) and in assay [3] (setting [8]) was 1000 to 10000 nM each time.

Regarding `COc1ccc2c(c1)[C@@]1(C[C@@H]1c1ccc3c(-c4ccnc(N5CCN(C)CC5)c4)n[nH]c3c1)C(=O)N2` (racemic) [Example A37, (1R*,2S*)-5′-Methoxy-2-(3-(2-(4-methylpiperazin-1-yl)pyridin-4-yl)-1H-indazol-6-yl)spiro[cyclopropane-1,3′-indolin]-2′-one], the GI50 is above 10000 nM in assay [1] (setting [11]); above 10000 nM in assay [2] (setting [7]); below 100 nM in assay [3] (setting [8]); 100 to 1000 nM in assay [4] (setting [9]); below 100 nM in assay [5] (setting [10]).

As to `COc1ccc2c(c1)[C@@]1(C[C@@H]1c1ccc3c(-c4ccc(N5CCN(C)CC5)cc4)n[nH]c3c1)C(=O)N2` (racemic) [Example A38, (1R*,2S*)-5′-Methoxy-2-(3-(4-(4-methylpiperazin-1-yl)phenyl)-1H-indazol-6-yl)spiro[cyclopropane-1,3′-indolin]-2′-one], the GI50 is above 10000 nM in assay [1] (HCC1954, 120 h, read-out: Cell Line GI50 Range HCC-1954, HCC1954 basal breast cancer cell line, 5 days culture, SRB); 100 to 1000 nM in assay [2] (read-out: Cell Line GI50 Range MCF-7); below 100 nM in assay [3] (A549, 120 h); below 100 nM in assay [4] (MDA-MB-468, 120 h, read-out: Cell Line GI50 Range MDA-MB-468, MDA-MB-468 basal breast cancer cell line); 100 to 1000 nM in assay [5] (read-out: Cell Line GI50 Range SW-620).

For the compound `COc1ccc2c(c1)[C@@]1(C[C@@H]1c1ccc3c(-c4cccc(CO)c4)n[nH]c3c1)C(=O)N2` (racemic) [Example A43, (1R*,2S*)-2-(3-(3-(hydroxymethyl)phenyl)-1H-indazol-6-yl)-5′-methoxy spiro[cyclopropane-1,3′-indolin]-2′-one 2,2,2-trifluoroacetate], the GI50 in assay [1] (setting [11]) is above 10000 nM; in assay [2] (setting [7]), 1000 to 10000 nM; in assay [3] (setting [8]), 1000 to 10000 nM; in assay [4] (setting [9]), 1000 to 10000 nM; in assay [5] (setting [10]) it was 1000 to 10000 nM.

In the case of `COc1ccc2c(c1)[C@@]1(C[C@@H]1c1ccc3c(-c4ccc(CO)cc4)n[nH]c3c1)C(=O)N2` (racemic) [Example A45, (1R*,2S*)-2-(3-(4-(hydroxymethyl)phenyl)-1H-indazol-6-yl)-5′-methoxyspiro[cyclopropane-1,3′-indolin]-2′-one 2,2,2-trifluoroacetate], the GI50 was above 10000 nM in assay [1] (setting [11]); 1000 to 10000 nM in assay [2] (setting [7]); 100 to 1000 nM in assay [3] (setting [8]); 100 to 1000 nM in assay [4] (setting [9]); 1000 to 10000 nM in assay [5] (setting [10]).

As to `COc1ccc2c(c1)[C@@]1(C[C@@H]1c1ccc3c(-c4cccc(N5CCNCC5)c4)n[nH]c3c1)C(=O)N2` (racemic) [Example A47, (1R*,2S*)-5′-methoxy-2-(3-(3-(piperazin-1-yl)phenyl)-1H-indazol-6-yl)spiro[cyclopropane-1,3′-indolin]-2′-one 2,2,2-trifluoroacetate], the GI50 in assay [1] (setting [6]), in assay [2] (setting [7]), in assay [3] (setting [8]), in assay [4] (setting [9]) and in assay [5] (setting [10]) was 1000 to 10000 nM in each case.

Take `COc1ccc2c(c1)[C@]1(C[C@H]1c1ccc3c(/C=C/c4ccc(CN5CCCCC5)nc4)n[nH]c3c1)C(=O)N2` (racemic) [Example A62, (1R,2S)-(E)-5′-methoxy-2-(3-((E)-2-(6-(piperidin-ylmethyl)pyridin-3-yl)vinyl)-1H-indazol-6-yl)spiro[cyclopropane-1,3′-indolin]-2′-one 2,2,2-trifluoroacetate salt]: the 50% growth inhibitory concentration (GI50) in assay [1] (setting [12]) lay in the range of 1000 to 10000 nM.

As for `CN1C(=O)[C@@]2(C[C@H]2c2ccc3c(/C=C/c4ccc(CN5CCOCC5)cc4)n[nH]c3c2)c2ccccc21` (racemic) [Example A87, (1R*,2S*)-(E)-1′-methyl-2-(3-(4-(morpholinomethyl)styryl)-1H-indazol-6-yl)spiro[cyclopropane-1,3′-indolin]-2′-one 2,2,2-trifluoroacetate], the GI50 was 1000 to 10000 nM in assay [1] (setting [6]); below 100 nM in assay [2] (setting [7]); below 100 nM in assay [3] (setting [8]); below 100 nM in assay [4] (setting [9]); 100 to 1000 nM in assay [5] (setting [10]).

As to `COc1ccc2c(c1)[C@@]1(C[C@@H]1c1ccc3c(-c4ccc(N5CCN(C)CC5)cc4)n[nH]c3c1)C(=O)N2C` (racemic) [Example A100, (1R*,2S*)-5′-methoxy-1′-methyl-2-(3-(4-(4-methylpiperazin-1-yl)phenyl)-1H-indazol-6-yl)spiro[cyclopropane-1,3′-indolin]-2′-one 2,2,2-trifluoroacetate], the GI50 in assay [1] (setting [11]) is 1000 to 10000 nM; in assay [2] (setting [7]) it was 100 to 1000 nM; in assay [3] (setting [8]) it was below 100 nM; in assay [4] (setting [9]), 100 to 1000 nM; in assay [5] (setting [10]) it was below 100 nM.

On to `COc1ccc2c(c1)[C@]1(C[C@H]1c1ccc3c(/C=C/c4cccc(CN5CCOCC5)c4)n[nH]c3c1)C(=O)N2` (racemic) [Example A133, (1R*,2S*)-5′-methoxy-2-(3-(3-(morpholinomethyl)styryl)-1H-indazol-6-yl)spiro[cyclopropane-1,3′-indolin]-2′-one 2,2,2-trifluoroacetate], for which the values for the GI50 in assay [1] (setting [11]), in assay [2] (setting [7]) and in assay [5] (setting [10]) were above 10000 nM, below 100 nM and 100 to 1000 nM, respectively.

Take `COc1ccc2c(c1)[C@]1(C[C@H]1c1ccc3c(/C=C/c4cccc(CN(C)C)c4)n[nH]c3c1)C(=O)N2` (racemic) [Example A135, (1R*,2S*)-2-(3-(3-((dimethylamino)methyl)styryl)-1H-indazol-6-yl)-5′-methoxyspiro[cyclopropane-1,3′-indolin]-2′-one 2,2,2-trifluoroacetate]: the GI50 in assay [1] (setting [6]) is above 10000 nM; in assay [5] (setting [10]), 100 to 1000 nM.

As to `O=C1Nc2ccc(F)cc2[C@@]12C[C@@H]2c1ccc2c(/C=C/c3ccc(CN4CCOCC4)cc3)n[nH]c2c1` (racemic) [Example A219, (1R*,2S*)-(E)-5′-fluoro-2-(3-(4-(morpholinomethyl)styryl-1H-indazol-6-yl)spiro[cyclopropane-1,3′-indolin]-2′-one 2,2,2-trifluoroacetate], the GI50 in assay [1] (setting [12]) and in assay [2] (setting [13]) was 100 to 1000 nM each time.

For `COc1ccc2c(c1)[C@]1(CC1c1ccc3c(/C=C/c4ccc(CN5C[C@@H](C)O[C@@H](C)C5)cc4)n[nH]c3c1)C(=O)N2` (relative stereo) [Example A186, (1R*,2S*)-(E)-2-(3-(4-trans-2,6-dimethylmorpholino)methyl)styryl)-1H-indazol-6-yl)-5′-methoxspiro[cyclopropane-1,3′-indolin]-2′-one 2,2,2-trifluoroacetate], the GI50 in assay [1] (setting [11]) is 1000 to 10000 nM.

As to `CCN(CC)Cc1ccc(/C=C/c2n[nH]c3cc([C@@H]4C[C@@]45C(=O)Nc4ccccc45)ccc23)cc1` (relative stereo) [Example A211, (1R*,2S*)-(E)-2-(3-(4-((diethylamino)methyl)styryl)-1H-indazol-6-yl)spiro-[cyclopropane-1,3′-indolin]-2′-one 2,2,2-trifluoroacetate], the GI50 in assay [2] (setting [13]) and in assay [5] (setting [14]) was 100 to 1000 nM in each case.

`CN(C)Cc1ccc(/C=C/c2n[nH]c3cc([C@@H]4C[C@@]45C(=O)Nc4ccccc45)ccc23)cc1` [Example A24, (1R,2S)-(E)-2-(3-(4-((dimethylamino)methyl)styryl)-1H-indazol-6-yl)spiro[cyclopropane-1,3′-indolin]-2′-one 2,2,2-trifluoroacetate]: the GI50 in assay [5] (setting [14]) is below 100 nM.
